Data on 1 compound can be found in BindingDB's records for doi:10.1021/bi049459m (University of Florida College of Medicine, 2004).

Structures are written as SMILES.

Holding throughout (assay): Protease Inhibition Assay
In experiment [1] the target is T1, Dimer of Gag-Pol polyprotein [489-587,K509R,V521I,L522F,M525I,I543V,L552P,A560V,V571A,I573V,L579M] (Human immunodeficiency virus 1, UniProt P04585, A560V/I543V/I573V/K509R/L522F/L552P/L579M/M525I/V521I/V571A).
T1 construct: 489-587

The target in experiment [2] is T2, Dimer of Gag-Pol polyprotein [489-587,K509R,V521I,L522F,M525I,I543V,L552P,A560V,V571A,L579M] (Human immunodeficiency virus 1, UniProt P04585, A560V/I543V/K509R/L522F/L552P/L579M/M525I/V521I/V571A).
T2 construct: 489-587
The note with it: pH 4.7; 37 °C.

In experiment [3] the target is T3, Dimer of Gag-Pol polyprotein [489-587,K509R,V521I,L522F,M525I,L552P,A560V,V571A,I573V,L579M] (Human immunodeficiency virus 1, UniProt P04585, A560V/I573V/K509R/L522F/L552P/L579M/M525I/V521I/V571A).
T3 construct: 489-587

The target in experiment [4] is T4, Dimer of Gag-Pol polyprotein [489-587,K509R,V521I,L522F,M525I,L552P,A560V,V571A,L579M] (Human immunodeficiency virus 1, UniProt P04585, A560V/K509R/L522F/L552P/L579M/M525I/V521I/V571A).
T4 construct: 489-587
The note with it: pH 4.7; 37 °C.

Experiment [5] deals with T5, Dimer of Gag-Pol polyprotein [489-587,K509R,V521I,L522F,M525I,M535I,I543V,L552P,A560V,V571A,I573V,L579M] (Human immunodeficiency virus 1, UniProt P04585, A560V/I543V/I573V/K509R/L522F/L552P/L579M/M525I/M535I/V521I/V571A).
T5 construct: 489-587

Experiment [6] deals with T6, Dimer of Gag-Pol polyprotein [489-587,K509R,V521I,L522F,M525I,M535I,L552P,A560V,V571A,I573V,L579M] (Human immunodeficiency virus 1, UniProt P04585, A560V/I573V/K509R/L522F/L552P/L579M/M525I/M535I/V521I/V571A).
T6 construct: 489-587

In experiment [7] the target is T7, Dimer of Gag-Pol polyprotein [489-587,K509R,V521I,L522F,M525I,M535I,L552P,A560V,V571A,L579M] (Human immunodeficiency virus 1, UniProt P04585, A560V/K509R/L522F/L552P/L579M/M525I/M535I/V521I/V571A).
T7 construct: 489-587
The note with it: pH 4.7; 37 °C.

The target of experiment [8] is T8, Dimer of Gag-Pol polyprotein [489-587] (Human immunodeficiency virus 1, UniProt P04585).
T8 construct: 489-587
The note with it: pH 4.7; 37 °C.

The term Ki denotes a measure of affinity in units of concentration, obtained from inhibition or displacement. A low value points to higher affinity. For `Cc1ccccc1CNC(=O)[C@H]1N(C(=O)[C@@H](O)[C@H](Cc2ccccc2)NC(=O)c2cccc(O)c2C)CSC1(C)C` [AG1776], the Ki in experiment [1] was found to be 9.4 nM; in experiment [2], 0.19 nM; in experiment [3], 0.55 nM; in experiment [4] it was 0.04 nM; in experiment [5] it was 5.6 nM; in experiment [6], 2.2 nM. Further, the values for the Ki in experiment [7] and in experiment [8] were 0.5 nM and 0.021 nM, respectively.
